Measurements as given in US10913727B2, “Modulators of the integrated stress pathway” (Calico Life Sciences LLC, priority 2016, dated 2021).

These molecules were tested on HEK293T cells carrying the ATF4 luciferase reporter (assay: ATF4-Luc assay, in vitro model of Vanishing Cell White Matter Disease (VWMD)). Settings: Homo sapiens, HEK-293T, 1 μg/mL tunicamycin, 7 hours, One Glo luminescence.
Assay type: cell-based
How it was run: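 Reporter cells were stably generated by retroviral transduction and puromycin selection, then seeded at 30,000 cells/well. Next day, cells received 1 μg/mL tunicamycin with 200 nM test compound for 7 h, and luciferase luminescence was read with a one-step reagent. Values reported as EC50.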

Question: How did the EC50 turn out when `CSc1ncccc1C(=O)NC12CC(NC(=O)COc3ccc(Cl)c(F)c3)(C1)C2` [Compound 828, N-{3-[2-(4-chloro-3-fluorophenoxy)acetamido]bicyclo[1.1.1]pentan-1-yl}-2-(methylsulfanyl)pyridine-3-carboxamide] was run?
Answer: The EC50 was > 2000 nM.

Question: For `Cn1ncc(C(=O)NC23CC(NC(=O)COc4ccc(Cl)c(F)c4)(C2)C3)c1C(F)(F)F` [Compound 874, N-{3-[2-(4-chloro-3-fluorophenoxy)acetamido]bicyclo[1.1.1]pentan-1-yl}-1-methyl-5-(trifluoromethyl)-1H-pyrazole-4-carboxamide], which EC50 is on record?
Answer: The EC50 was > 2000 nM.

Question: How did the EC50 turn out when `O=C(COc1ccc(Cl)c(F)c1)NC12CC(NC(=O)c3cc(N4CCOCC4)ccn3)(C1)C2` [Compound 180, N-{3-[2-(4-chloro-3-fluorophenoxy)acetamido]bicyclo[1.1.1]pentan-1-yl}-4-(morpholin-4-yl)pyridine-2-carboxamide] was run?
Answer: Its EC50 is 1000 to 2000 nM.

Question: How did the EC50 turn out when `Cc1nc(C(=O)NC23CC(NC(=O)COc4ccc(Cl)c(F)c4)(C2)C3)cs1` [Compound 539, N-{3-[2-(4-chloro-3-fluorophenoxy)acetamido]bicyclo[1.1.1]pentan-1-yl}-2-methyl-1,3-thiazole-4-carboxamide] was run?
Answer: The EC50 was 50 to 250 nM.

Question: `COc1cccc(C(=O)NC23CCC(NC(=O)COc4ccc(Cl)c(F)c4)(CC2)C(O)C3)n1` (stereo not shown) [Compound 923, N-{4-[2-(4-chloro-3-fluorophenoxy)acetamido]-3-hydroxybicyclo[2.2.2]octan-1-yl}-6-methoxypyridine-2-carboxamide] was tested. Which EC50 did it give?
Answer: The EC50 was 50 to 250 nM.

Question: How did the EC50 turn out when `O=C(COc1ccc(Cl)c(F)c1)NC12CC(NC(=O)c3cccc[n+]3[O-])(C1)C2` [Compound 403, N-{3-[2-(4-chloro-3-fluorophenoxy)acetamido]bicyclo[1.1.1]pentan-1-yl}-1-oxo-1λ^5-pyridine-2-carboxamide] was run?
Answer: The EC50 was > 2000 nM.

Question: How did the EC50 turn out when `Cc1cc(C(=O)NC23CC(NC(=O)COc4ccc(Cl)c(F)c4)(C2)C3)ncc1Cl` [Compound 664, 5-chloro-N-{3-[2-(4-chloro-3-fluorophenoxy)acetamido]bicyclo[1.1.1]pentan-1-yl}-4-methylpyridine-2-carboxamide] was run?
Answer: The EC50 was 250 to 1000 nM.

Question: With `COc1cccc(C(=O)NC23CC(NC(=O)COc4ccc(Cl)c(F)c4)(C2)C3)c1` [Compound 301, N-{3-[2-(4-chloro-3-fluorophenoxy)acetamido]bicyclo[1.1.1]pentan-1-yl}-3-methoxybenzamide] as the molecule, how does the EC50 read?
Answer: The EC50 was 250 to 1000 nM.

Question: With `O=C(COc1ccc(Cl)c(F)c1)NC12CC(NC(=O)c3coc4c3C(=O)CCC4)(C1)C2` [Compound 315, N-{3-[2-(4-chloro-3-fluorophenoxy)acetamido]bicyclo[1.1.1]pentan-1-yl}-4-oxo-4,5,6,7-tetrahydro-1-benzofuran-3-carboxamide] as the molecule, how does the EC50 read?
Answer: Its EC50 is 250 to 1000 nM.

Question: With `CSc1nccc(C(=O)NC23CC(NC(=O)COc4ccc(Cl)c(F)c4)(C2)C3)n1` [Compound 838, N-{3-[2-(4-chloro-3-fluorophenoxy)acetamido]bicyclo[1.1.1]pentan-1-yl}-2-(methylsulfanyl)pyrimidine-4-carboxamide] as the molecule, how does the EC50 read?
Answer: Its EC50 is 50 to 250 nM.

Question: Which EC50 does the source give for `O=C(COc1ccc(Cl)c(F)c1)NC12CCC(NC(=O)c3cnc4ccccc4n3)(CC1)C(O)C2` (stereo not shown) [Compound 223, N-{4-[2-(4-chloro-3-fluorophenoxy)acetamido]-2-hydroxybicyclo[2.2.2]octan-1-yl}quinoxaline-2-carboxamide] here?
Answer: The EC50 was 50 to 250 nM.

Question: How did the EC50 turn out when `NS(=O)(=O)c1ccc(C(=O)NC23CC(NC(=O)COc4ccc(Cl)c(F)c4)(C2)C3)cn1` [Compound 325, N-{3-[2-(4-chloro-3-fluorophenoxy)acetamido]bicyclo[1.1.1]pentan-1-yl}-6-sulfamoylpyridine-3-carboxamide] was run?
Answer: Its EC50 is > 2000 nM.

Question: Which EC50 does the source give for `O=C(COc1ccc(Cl)c(F)c1)NC12CCC(NC(=O)c3cnon3)(CC1)CC2O` (stereo not shown) [Compound 634, N-{4-[2-(4-chloro-3-fluorophenoxy)acetamido]-3-hydroxybicyclo[2.2.2]octan-1-yl}-1,2,5-oxadiazole-3-carboxamide] here?
Answer: The EC50 was > 2000 nM.

Question: How did the EC50 turn out when `O=C(COc1ccc2c(c1)OC(F)(F)O2)NC12CC(NC(=O)c3ccccn3)(C1)C2` [Compound 400, N-(3-{2-[(2,2-difluoro-2H-1,3-benzodioxol-5-yl)oxy]acetamido}bicyclo[1.1.1]pentan-1-yl)pyridine-2-carboxamide] was run?
Answer: Its EC50 is 250 to 1000 nM.

Question: How did the EC50 turn out when `O=C(COc1ccc(Cl)c(F)c1)NC12CCC(NC(=O)c3ccc(C4CC4)cn3)(CC1)CC2O` (stereo not shown) [Compound 938, N-{4-[2-(4-chloro-3-fluorophenoxy)acetamido]-3-hydroxybicyclo[2.2.2]octan-1-yl}-5-cyclopropylpyridine-2-carboxamide] was run?
Answer: Its EC50 is 50 to 250 nM.

Question: Which EC50 does the source give for `Cc1cncc(NC23CC(NC(=O)COc4ccc(Cl)c(F)c4)(C2)C3)n1` [Compound 688, 2-(4-chloro-3-fluorophenoxy)-N-{3-[(6-methylpyrazin-2-yl)amino]bicyclo[1.1.1]pentan-1-yl}acetamide] here?
Answer: Its EC50 is > 2000 nM.

Question: With `Cc1cc(C(=O)NC23CCC(NC(=O)COc4ccc(Cl)c(F)c4)(CC2)[C@@H](O)C3)on1` (single isomer, unassigned) [Compound 358] as the molecule, how does the EC50 read?
Answer: Its EC50 is < 50 nM.

Question: `Cc1coc(C(=O)NC23CC(NC(=O)COc4ccc(Cl)c(F)c4)(C2)C3)c1` [Compound 613, N-{3-[2-(4-chloro-3-fluorophenoxy)acetamido]bicyclo[1.1.1]pentan-1-yl}-4-methylfuran-2-carboxamide] was tested. Which EC50 did it give?
Answer: Its EC50 is 50 to 250 nM.

Question: Which EC50 does the source give for `O=C(COc1ccc(Cl)c(F)c1)NC12CC(NC(=O)c3noc4c3CCCC4)(C1)C2` [Compound 880, N-{3-[2-(4-chloro-3-fluorophenoxy)acetamido]bicyclo[1.1.1]pentan-1-yl}-4,5,6,7-tetrahydro-1,2-benzoxazole-3-carboxamide] here?
Answer: Its EC50 is > 2000 nM.

Question: With `O=C(COc1ccc(Cl)c(F)c1)NC12CC(NC(=O)c3ccc(-n4cncn4)cc3)(C1)C2` [Compound 783, N-{3-[2-(4-chloro-3-fluorophenoxy)acetamido]bicyclo[1.1.1]pentan-1-yl}-4-(1H-1,2,4-triazol-1-yl)benzamide] as the molecule, how does the EC50 read?
Answer: The EC50 was > 2000 nM.

Question: Which EC50 does the source give for `O=C(COc1ccc(Cl)c(F)c1)NC12CC(NC(=O)c3noc4ccccc34)(C1)C2` [Compound 346, N-{3-[2-(4-chloro-3-fluorophenoxy)acetamido]bicyclo[1.1.1]pentan-1-yl}-1,2-benzoxazole-3-carboxamide] here?
Answer: The EC50 was 250 to 1000 nM.

Question: Which EC50 does the source give for `O=C(COc1ccc(Cl)c(Cl)c1)NC12CC(NC(=O)c3ccc(CO)cn3)(C1)C2` [Compound 160, N-{3-[2-(3,4-dichlorophenoxy)acetamido]bicyclo[1.1.1]pentan-1-yl}-5-(hydroxymethyl)pyridine-2-carboxamide] here?
Answer: The EC50 was 250 to 1000 nM.

Question: For `CCCn1ccc(C(=O)NC23CC(NC(=O)COc4ccc(Cl)c(F)c4)(C2)C3)n1` [Compound 343, N-{3-[2-(4-chloro-3-fluorophenoxy)acetamido]bicyclo[1.1.1]pentan-1-yl}-1-propyl-1H-pyrazole-3-carboxamide], which EC50 is on record?
Answer: The EC50 was 50 to 250 nM.

Question: `Cc1nc(C)c(C(=O)NC23CCC(NC(=O)COc4ccc(Cl)c(F)c4)(CC2)C(O)C3)s1` (stereo not shown) [Compound 446, N-{4-[2-(4-chloro-3-fluorophenoxy)acetamido]-3-hydroxybicyclo[2.2.2]octan-1-yl}-2,4-dimethyl-1,3-thiazole-5-carboxamide] was tested. Which EC50 did it give?
Answer: Its EC50 is 250 to 1000 nM.

Question: How did the EC50 turn out when `CC(C)c1nc(C(=O)NC23CCC(NC(=O)COc4ccc(Cl)c(F)c4)(CC2)C(O)C3)co1` (stereo not shown) [Compound 607, N-{4-[2-(4-chloro-3-fluorophenoxy)acetamido]-3-hydroxybicyclo[2.2.2]octan-1-yl}-2-(propan-2-yl)-1,3-oxazole-4-carboxamide] was run?
Answer: Its EC50 is 50 to 250 nM.
